Measured values published in paper PMC12102759 (Protein Science : A Publication of the Protein Society, 2025).

Tested on: G3BP1 NFT2
Assay type: binding, human
Settings: library DMS-CoV; bait G3BP1 NFT2; prey N; peptide RNAPRITFGGPSDSTG; listed as aa = residue placed at this position; column sums to 1

| Substance | DMS PSSM value, T (position 7) | DMS PSSM value, I (position 6) | DMS PSSM value, G (position 16) | DMS PSSM value, A (position 3) | DMS PSSM value, G (position 9) | DMS PSSM value, N (position 2) | DMS PSSM value, F (position 8) | DMS PSSM value, S (position 14) | DMS PSSM value, G (position 10) | DMS PSSM value, P (position 4) |
| --- | --- | --- | --- | --- | --- | --- | --- | --- | --- | --- |
| RNAPRITFGGPSDSTG T7P (RNAPRIPFGGPSDSTG) | 0 |  |  |  |  |  |  |  |  |  |
| RNAPRITFGGPSDSTG I6E (RNAPRETFGGPSDSTG) |  | 0 |  |  |  |  |  |  |  |  |
| RNAPRITFGGPSDSTG G16Y (RNAPRITFGGPSDSTY) |  |  | 0 |  |  |  |  |  |  |  |
| RNAPRITFGGPSDSTG A3K (RNKPRITFGGPSDSTG) |  |  |  | 0 |  |  |  |  |  |  |
| RNAPRITFGGPSDSTG G9K (RNAPRITFKGPSDSTG) |  |  |  |  | 0 |  |  |  |  |  |
| RNAPRITFGGPSDSTG N2F (RFAPRITFGGPSDSTG) |  |  |  |  |  | 0 |  |  |  |  |
| RNAPRITFGGPSDSTG I6G (RNAPRGTFGGPSDSTG) |  | 0 |  |  |  |  |  |  |  |  |
| RNAPRITFGGPSDSTG F8Q (RNAPRITQGGPSDSTG) |  |  |  |  |  |  | 0 |  |  |  |
| RNAPRITFGGPSDSTG F8W (RNAPRITWGGPSDSTG) |  |  |  |  |  |  | 0 |  |  |  |
| RNAPRITFGGPSDSTG G9M (RNAPRITFMGPSDSTG) |  |  |  |  | 0 |  |  |  |  |  |
| RNAPRITFGGPSDSTG S14T (RNAPRITFGGPSDTTG) |  |  |  |  |  |  |  | 0 |  |  |
| RNAPRITFGGPSDSTG S14I (RNAPRITFGGPSDITG) |  |  |  |  |  |  |  | 0 |  |  |
| RNAPRITFGGPSDSTG G16Q (RNAPRITFGGPSDSTQ) |  |  | 0 |  |  |  |  |  |  |  |
| RNAPRITFGGPSDSTG T7E (RNAPRIEFGGPSDSTG) | 1 |  |  |  |  |  |  |  |  |  |
| RNAPRITFGGPSDSTG F8D (RNAPRITDGGPSDSTG) |  |  |  |  |  |  | 0 |  |  |  |
| RNAPRITFGGPSDSTG G10D (RNAPRITFGDPSDSTG) |  |  |  |  |  |  |  |  | 0 |  |
| RNAPRITFGGPSDSTG P4V (RNAVRITFGGPSDSTG) |  |  |  |  |  |  |  |  |  | 0 |
| RNAPRITFGGPSDSTG N2I (RIAPRITFGGPSDSTG) |  |  |  |  |  | 0 |  |  |  |  |

| Substance | DMS PSSM value, T (position 7) | DMS PSSM value, I (position 6) | DMS PSSM value, G (position 16) | DMS PSSM value, A (position 3) | DMS PSSM value, G (position 9) | DMS PSSM value, N (position 2) | DMS PSSM value, F (position 8) | DMS PSSM value, S (position 14) | DMS PSSM value, G (position 10) | DMS PSSM value, P (position 4) |
| --- | --- | --- | --- | --- | --- | --- | --- | --- | --- | --- |
| RNAPRITFGGPSDSTG F8M (RNAPRITMGGPSDSTG) |  |  |  |  |  |  | 0 |  |  |  |
| RNAPRITFGGPSDSTG A3M (RNMPRITFGGPSDSTG) |  |  |  | 0 |  |  |  |  |  |  |
| RNAPRITFGGPSDSTG G9V (RNAPRITFVGPSDSTG) |  |  |  |  | 0 |  |  |  |  |  |
| RNAPRITFGGPSDSTG G9P (RNAPRITFPGPSDSTG) |  |  |  |  | 0 |  |  |  |  |  |
| RNAPRITFGGPSDSTG S14Q (RNAPRITFGGPSDQTG) |  |  |  |  |  |  |  | 0 |  |  |
| RNAPRITFGGPSDSTG T7W (RNAPRIWFGGPSDSTG) | 0 |  |  |  |  |  |  |  |  |  |
| RNAPRITFGGPSDSTG S14R (RNAPRITFGGPSDRTG) |  |  |  |  |  |  |  | 0 |  |  |
| RNAPRITFGGPSDSTG G10K (RNAPRITFGKPSDSTG) |  |  |  |  |  |  |  |  | 0 |  |
| RNAPRITFGGPSDSTG S14E (RNAPRITFGGPSDETG) |  |  |  |  |  |  |  | 0 |  |  |
| RNAPRITFGGPSDSTG P4D (RNADRITFGGPSDSTG) |  |  |  |  |  |  |  |  |  | 0 |
| RNAPRITFGGPSDSTG P4R (RNARRITFGGPSDSTG) |  |  |  |  |  |  |  |  |  | 0 |
| RNAPRITFGGPSDSTG G16S (RNAPRITFGGPSDSTS) |  |  | 0 |  |  |  |  |  |  |  |
| RNAPRITFGGPSDSTG F8G (RNAPRITGGGPSDSTG) |  |  |  |  |  |  | 0 |  |  |  |
| RNAPRITFGGPSDSTG P4W (RNAWRITFGGPSDSTG) |  |  |  |  |  |  |  |  |  | 0 |
| RNAPRITFGGPSDSTG S14F (RNAPRITFGGPSDFTG) |  |  |  |  |  |  |  | 0 |  |  |
| RNAPRITFGGPSDSTG S14P (RNAPRITFGGPSDPTG) |  |  |  |  |  |  |  | 0 |  |  |
| RNAPRITFGGPSDSTG N2T (RTAPRITFGGPSDSTG) |  |  |  |  |  | 0 |  |  |  |  |

Same assay, conditions: library DMS-CoV; bait G3BP1 NFT2; prey N; peptide RNAPRITFGGPSDSTG; listed as aa = residue placed at this position; column sums to 1

| Substance | DMS PSSM value, R (position 5) | DMS PSSM value, S (position 12) | DMS PSSM value, D (position 13) | DMS PSSM value, P (position 11) | DMS PSSM value, T (position 15) |
| --- | --- | --- | --- | --- | --- |
| RNAPRITFGGPSDSTG R5S (RNAPSITFGGPSDSTG) | 0.002286 |  |  |  |  |
| RNAPRITFGGPSDSTG R5N (RNAPNITFGGPSDSTG) | 0 |  |  |  |  |
| RNAPRITFGGPSDSTG S12I (RNAPRITFGGPIDSTG) |  | 0 |  |  |  |
| RNAPRITFGGPSDSTG D13K (RNAPRITFGGPSKSTG) |  |  | 0 |  |  |
| RNAPRITFGGPSDSTG P11V (RNAPRITFGGVSDSTG) |  |  |  | 0 |  |
| RNAPRITFGGPSDSTG P11L (RNAPRITFGGLSDSTG) |  |  |  | 0 |  |
| RNAPRITFGGPSDSTG R5I (RNAPIITFGGPSDSTG) | 0.009613 |  |  |  |  |
| RNAPRITFGGPSDSTG P11M (RNAPRITFGGMSDSTG) |  |  |  | 0 |  |
| RNAPRITFGGPSDSTG T15D (RNAPRITFGGPSDSDG) |  |  |  |  | 0 |
| RNAPRITFGGPSDSTG T15M (RNAPRITFGGPSDSMG) |  |  |  |  | 0 |

Tested on: G3BP1 NFT2
Assay type: binding, human
Settings: library DMS-BM; bait G3BP1 NFT2; prey CAPRIN1; AQMQGPYNFIQDSM(averaged): mean of the two overlapping peptides over the shared positions

| Substance | DMS position-specific score (PSSM value) per amino-acid substitution, averaged |
| --- | --- |
| AQMQGPYNFIQDSM(averaged) Q2S (ASMQGPYNFIQDSM) | 0.004198 |
| AQMQGPYNFIQDSM(averaged) D12Y (AQMQGPYNFIQYSM) | 0.00358 |
| AQMQGPYNFIQDSM(averaged) N8Y (AQMQGPYYFIQDSM) | 0.0098 |
| AQMQGPYNFIQDSM(averaged) M3F (AQFQGPYNFIQDSM) | 0.0581 |
| AQMQGPYNFIQDSM(averaged) S13A (AQMQGPYNFIQDAM) | 0.1575 |
